Literature values in US20060009509A1, “Progesterone receptor antagonists, contraceptive regimens, and kits” (Wyeth, priority 2004, published 2006).
Like-named read-outs stand apart in the source and are kept apart here.

System: women

CC#C[C@]1(O)CC[C@H]2[C@@H]3CCC4=CC(=O)CCC4=C3[C@@H](c3ccc(N(C)C)cc3)C[C@@]21C [mifepristone]
women who ovulated at least once (1 mg daily, 3-month treatment (Croxatto 1998)): 14 of 21
ovulations, % of cycles (2 mg continuous, 4 months, Edinburgh site (Brown 2002)): 9.6%
ovulations, % of cycles (2 mg continuous, Shanghai site (Brown 2002)): 2.5%
ovulations, % of cycles (5 mg continuous, 4 months, Edinburgh site (Brown 2002)): 5.2%
ovulations, % of cycles (5 mg continuous, Shanghai site (Brown 2002)): 1.2%
prevention of ovulation (continuous dose of 1 mg, study of 11 subjects (Batista 1992)): appeared to prevent ovulation
prevention of ovulation (continuous dose of 1 mg, study with 5 subjects (Croxatto 1993)): not
prevention of ovulation (continuous low doses 2-10 mg, one treatment cycle, about 5 subjects per dose group (Spitz 1993; Ledger 1992)): prevent ovulation
